The source of these data is patent US7608612B2, “Radiosensitizer formulations and methods for use” (priority 2005, dated 2009).

Data set [1] relates to Chinese hamster ovary (CHO) cells. Description: In vitro synergism of buthionine sulfoximine and 4(5)-nitrohistidine as radiosensitizers. The class given is cell-based. The settings on record: compounds at 2 mM, radiation 0 to 10 Gy. The method, then: Buthionine sulfoximine is an agent known to deplete the levels of endogenous detoxifier and radioprotector glutathione. […] In several experiments, as here, the enhancement ration was greater than two with both agents present. CHO cells were used in the experiments and trhe compounds were present at 2 mM concentration as indicated.
Chinese hamster ovary cells were grown on F12 medium supplemented with fetal calf serum. Cells were treated with dosages of radiation from 0 to 10 Gy, using a 9 MeV electron beam as above, either alone or in the presence of nitrohistidine, buthionine sulfoximine, or 4(5)-nitrohistidine plus buthionine sulfoximine together. When present, the buthionine sulfoximine and 4(5)-nitrohistidine were added at 2 mM concentration. […] S. fractions remaining for the combined dual drug/radiation treatment indicate an initial lag time, before continued depletion of cells surviving, down to less than 0.01 SF at 10 Gy in the presence of both NHis and BSO. The enhancement ratio calculated for the combined treatment was greater than two over that of any other treatment combination.

For the next data set, the system named is tumors. The settings on record: number of trials out of all trials; cited from earlier work.
Data set [2] deals with Lewis lung carcinoma. Description: In vivo growth retardation experiment 2 with Lewis lung carcinoma (comparison with misonidazole). More on the design: species or system mice. The conditions noted are these: for tumor growth course (in words): mice with Lewis lung carcinoma, radiosensitizer plus radiation. An excerpt:
Another growth retardation study was done in mice implanted with Lewis lung carcinoma comparing 4(5)-nitrohistidine (NHis) plus radiation treatment to misonidazole plus radiation treatment.

Another data set deals with protozoa. The conditions noted are these: Brossi et al.; cited from earlier work.
Data set [3] concerns Lewis lung carcinoma. Description: In vivo growth retardation experiment 1 with Lewis lung carcinoma. On the set-up: species or system mice (C-57). The method, then: FIG. 4 is an in vivo Growth Retardation Study of Lewis lung carcinoma in […]. Groups of 5-6 mice were subcutaneously implanted with Lewis Lung Carcinoma cells and permitted to grow a small measurable tumor in the hind leg. Radiosensitizers were given by i.p. injection. In some comparative experiments, nitrohistidine was employed at half the concentration of misonidazole. The measurable tumors were treated with a single 500 cGy fraction of 9 MeV electrons.
FIG. 5 is a tumor size assessment plot from the Growth Retardation Study of FIG. 4, showing tumor size as a function of time (in days).
Groups of 5-6 mice (C-57) were subcutaneously implanted in the hind leg with Lewis lung carcinoma cells and the cells were permitted to grow until a measurable tumor was evident. Radiosensitizers were administered using i.p. injection at 2 mM concentration, and then treated with a single 500 cGy dose administered with a 9 MeV electron beam and tumor size measured daily for a period of 9 days. Control mice were implanted with tumor cells and left untreated.

The test system of data set [4] is Chinese hamster ovary (CHO) cells. Description: In vitro study of 4(5)-nitrohistidine as a radiosensitizer under hypoxic conditions. The class given is cell-based. The settings on record: 30 min hypoxic pre-incubation.
For data set [5] the test system is unchanged. The data set can be described thus: In vitro study of 4(5)-nitrohistidine as a radiosensitizer, 300 cGy 9 MeV electron beam. It counts as cell-based. The method, then: FIG. 2A is an in vitro study of nitrohistidine on Chinese hamster ovary (CHO) cells. CHO cells were in use in an F12 medium with fetal calf serum. A 9 MeV electron beam was used to irradiate the Petri dishes, dose 300 cGy, and a concentration range of 1-4 mM nitrohistidine was employed.
FIG. 2B is an in vitro study of nitrohistidine compared to misonidazole on CHO cells.
An in vitro study using Chinese hamster ovary (CHO) cells was carried out using F12 medium with fetal calf serum for growth of the CHO cells. A 9 MeV electron beam, generated by a Varian Clinac 1800 instrument, was used to irradiate the Petri dishes, at a dose of 300 cGy, and a concentration of 1 to 4 mM 4(5)-nitrohistidine was added alone, or in combination with the radiation dose.

Setting [6] is: first group of mice, NHis+XRT, day 9.
Setting [7] is: second group of mice, NHis+XRT, day 9.

Entries after “also recorded” stand apart in the source; their conditions may differ.

As to `CCCCS(=N)(=O)CCC(N)C(=O)O` (stereo not shown) [Buthionine sulfoximine, buthionine sulfoximine], in data set [1], the “radiosensitization / synergism (in words)” value is given as “some radiosensitization properties of its own”.
For the compound `COCC(O)Cn1ccnc1[N+](=O)[O-]` (stereo not shown) [misonidazole, reference compound], the “clinical trials that suggested any clinical benefit as a radiosensitizer” value in the data set on tumors is listed as 5 of 38. For the same compound, in the data set on Lewis lung carcinoma [2], the “tumor growth course (in words)” value is given as “no ability to retard tumor growth”.
In the case of `NC(Cc1nc[nH]c1[N+](=O)[O-])C(=O)O` (stereo not shown) [4(5)-nitrohistidine], the “efficacy as an anti-protozoal agent relative to known anti-protozoal nitroimidazole agents” value in the data set on protozoa is given as “zero”. Also, in the data set on Lewis lung carcinoma [3] (setting [6]), the “growth retardation compared to the control group” value was “about 22%” and the “growth retardation compared to the group treated with radiation alone” value is “about 10%”. Further, in the data set with Lewis lung carcinoma [3] (first group of mice, NHis+XRT, i.p., single 500 cGy dose), the “tumor size at day 9” value is listed as “about 18 mm”. For the same compound, in the data set with Lewis lung carcinoma [3] (second group of mice, NHis alone without radiation (same value given for control)), the “tumor size at day 9” value is “about 21 mm”. The “tumor size at day 9” value with Lewis lung carcinoma [3] (second group of mice, NHis+XRT) is “about 15 mm”. Moreover, in the data set with Lewis lung carcinoma [3] (setting [7]), the “growth retardation compared to the XRT treatment alone” value is on record as about 35% and the “growth retardation compared to the control or NHis alone” value is recorded as “about 29%”. The “S. Fraction at 10 Gy” value in data set [4] (2 mM plus radiation) is “about 0.006”. Moreover, the calculated enhancement ratio in data set [4] (2 mM, at the 0.1 level SF value (90% killing), versus radiation alone) is on record as 1.38. Moreover, the “toxicity of nitrohistidine alone (S. fraction, surviving fraction of cells)” value in data set [5] (1-4 mM nitrohistidine, no radiation) was “did not appear to possess toxicity by itself; also recorded: did not exhibit any toxicity”. The “effective concentration range for radiosensitization” value in data set [5] (300 cGy) lay within 1 to 4 mM. The “S. fraction (surviving fraction) in the presence of ionizing radiation (Nitro+XRT)” value in data set [5] (300 cGy, all four concentrations 1 to 4 mM) was “under 0.6”. Further, the “radiosensitizing effectiveness of 2 mM compared with 5 mM” value in data set [5] (additional studies, data not shown) is given as “nearly as effective as 5 mM”. For the same compound, in the data set on Lewis lung carcinoma [2], the “tumor growth course (in words)” value was “plateau in tumor growth after 9-10 days”. Moreover, the “in vivo radiosensitizer potency compared with misonidazole” value in the data set with Lewis lung carcinoma [2] (plus radiation, in vivo) was “more potent and effective radiosensitizer than misonidazole”.
